This is an account of results in ChEMBL document CHEMBL1667825, “Synthesis of cross-reactive carbohydrate determinants fragments as tools for in vitro allergy diagnosis” (Bioorg Med Chem, 2011).

For one assay, the species on record is Homo sapiens. Description: Binding affinity to human anti-bromelain immunoglobulin E in multiple pollen sensitised patient serum using after 30 mins by ELISA. For orientation: ELISA stands for enzyme-linked immunosorbent assay.
For assay [1], the species on record is Oryctolagus cuniculus. The assay can be described thus: Binding affinity to rabbit anti-HRP immunoglobulin G antibody at 5 ug/ml using p-nitrophenyl-phosphate substrate after 15 mins by ELISA.
Assay [2] is filed under the species Oryctolagus cuniculus. Description: Binding affinity to rabbit anti-bee venom immunoglobulin G antibody at 5 ug/ml using p-nitrophenyl-phosphate substrate after 15 mins by ELISA.

Activity calls are given as the source filed them. The rule behind the calls is not given here.

Take `O=C(CCCCCO[C@@H]1O[C@H](CO[C@H]2O[C@H](CO)[C@@H](O)[C@H](O)[C@@H]2O)[C@@H](O)[C@H](O[C@@H]2O[C@@H](CO)[C@H](O)[C@@H](O)[C@H]2O)[C@@H]1O[C@@H]1OC[C@@H](O)[C@H](O)[C@H]1O)NCCCCCCNC(=O)CCCC[C@@H]1SC[C@@H]2NC(=O)N[C@@H]21`: the result in the assay listed under Homo sapiens and in the assay filed under Oryctolagus cuniculus [1] was Active.

In the case of `O=C(CCCCCO[C@@H]1O[C@H](CO[C@H]2O[C@H](CO)[C@@H](O)[C@H](O)[C@@H]2O)[C@@H](O)[C@H](O)[C@@H]1O[C@@H]1OC[C@@H](O)[C@H](O)[C@H]1O)NCCCCCCNC(=O)CCCC[C@@H]1SC[C@@H]2NC(=O)N[C@@H]21`, the result in the assay filed under Oryctolagus cuniculus [1] was Active.

As for `CC(=O)N[C@H]1[C@H](O[C@H]2[C@H](O[C@@H]3O[C@@H](C)[C@@H](O)[C@@H](O)[C@@H]3O)[C@@H](NC(C)=O)[C@H](OCCCCCC(=O)NCCCCCCNC(=O)CCCC[C@H]3[C@H]4NC(=O)N[C@H]4CS3(=O)=O)O[C@@H]2CO[C@H]2O[C@H](C)[C@H](O)[C@H](O)[C@H]2O)O[C@H](CO)[C@@H](O)[C@@H]1O`, the outcome in the assay filed under Homo sapiens and in the assay listed under Oryctolagus cuniculus [1] was Active. Further, the result in the assay listed under Oryctolagus cuniculus [2] was inactive.

In the case of `CC(=O)N[C@H]1[C@H](O[C@H]2[C@H](O[C@@H]3O[C@@H](C)[C@@H](O)[C@@H](O)[C@@H]3O)[C@@H](NC(C)=O)[C@H](OCCCCCC(=O)NCCCCCCNC(=O)CCCC[C@H]3[C@H]4NC(=O)N[C@H]4CS3(=O)=O)O[C@@H]2CO)O[C@H](CO)[C@@H](O)[C@@H]1O`, the outcome in the assay filed under Homo sapiens and in the assay listed under Oryctolagus cuniculus [1] was Active.
